Entries after “also recorded” stand apart in the source; their conditions may differ.
Key:
Format in all cases: cell-based, human
[1] = system: CTL clone 5; assay: Chromium release cytolysis of peptide-pulsed target cells by CTL clone 5
Method: FIGS. 5A–5C. Characterization of the 9-mer ESO9-54 and 10-mer ESO10-53 derived from the normal open reading frame. FIG. 5A. 586EBV or 1510EBV B cells were pulsed with ESO10-53 and ESO9-54 peptides at different concentrations for 120 min. After two washes with AIM-V medium with 120 IU IL-2, CTL clone 5 (1×10^5/well) was added and incubated for 18 to 24 h. GM-CSF release by CTL clone 5 was determined by ELISA. FIG. 5B. 586mel cells were lysed by CTL clone 5, but 397mel cells were not lysed by CTL clone 5 at different E:T ratios. FIG. 5C. 586EBV and 1510EBV B cells were labeled with chromium overnight. The ESO10-53 peptide was then pulsed on the chromium-labeled 586EBV, 1510EBV, and T2 cells for 120 min. An irrelevant peptide containing an HLA-A31 peptide-binding motif was also pulsed on chromium-labeled 586EBV, 1510EBV B cells as negative controls. After peptide incubation and two washes, cytolysis of target cells by CTL clone 5 was determined in a 4-h chromium release assay. T2 pulsed with the ESO10-53 peptide was used for the specificity control.
Cytolytic assay was done as previously described (Kawakami, Y et al., 1994, Proc. Natl. Acad. Sci. USA 91:6458–62). Briefly, the target cells were labeled with chromium for 90 min. After washing three times, the cells were incubated with peptides at a concentration of 1 μg/ml for 90 min. The cells were washed again, counted, and then mixed with TIL586 or CTL clone 5 at the indicated ratio of effector: targets (E:T). Chromium release was measured after 4 h incubation. The peptides were synthesized by a solid-phase method using a peptide synthesizer (Model AMS 422, Gilson Co., Inc., Worthington, Ohio). Some peptides were purified by HPLC and had greater than 98% in purity. […] Percentage of specific lysis was determined from the equation (A−B)/(C−B)×100 where A is lysis of 586EBV B cells by TIL586 or clone 5 in the presence of a peptide, B is spontaneous release from 586EBV B cells in presence of the same peptide but in the absence of effector cells, and C is the maximum chromium release. […]

[2] = system: CTL clone 14; assay: T cell recognition of peptide-pulsed EBV B cells by CTL clone 14; settings: peptide pulsed onto EBV B cells
From the text: FIGS. 6A–6H. CTL clones 2 and 14 recognize the NY-ESO-1 gene, but not the ESO10-53 peptide derived from the NY-ESO-1 protein. CTL clones 2, 14 and 5 recognized NY-ESO-1 when cotransfected with HLA-A31 cDNA into COS-7 (FIG. 6A, C, E and G). TIL1244, which recognized TRP-2 But not NY-ESO-1, was used as a specificity control. FIGS. 6B, D, F and H. CTL clones 2, 5, 14, and TIL1244 recognized 586mel. […] TIL1244 recognized the TRP197-205 peptide derived from TRP-2, 586EBV B cells alone or pulsed with the ORF3P peptide from an alternative reading frame of TRP1 were negative controls. 397mel is an HLA-A31-negative, NY-ESO-1-positive tumor line.
DNA transfection and GM-CSF assay were done as previously described (Wang, R. F., P. F. Robbins, Y. Kawakami, X. Q. Kang, and S. A. Rosenberg, 1995, J. Exp. Med. 181:799–804). Briefly, […] of DNA carrying a different fragment and 50 ng of the HLA-A31 DNA were mixed with 2 μl of lipofectamine in 100 μl of serum-free DMEM for 15–45 min. The DNA/lipofectamine mixture was then added to the COS-7 (5×10^4) cells and incubated overnight. The following day, cells were washed twice with DMEM medium. […] After 18–24 h incubation, 100 μl of supernatant was collected and GM-CSF was measured in a standard ELISA assay (R+D Systems, Minneapolis, Minn.). […]

[3] = system: CTL clone 5; assay: GM-CSF release by CTL clone 5 on peptide-pulsed EBV B cells
Method: DNA transfection and GM-CSF assay were done as previously described (Wang, R. F., P. F. Robbins, Y. Kawakami, X. Q. Kang, and S. A. Rosenberg, 1995, J. Exp. Med. 181:799–804). Briefly, […] of DNA carrying a different fragment and 50 ng of the HLA-A31 DNA were mixed with 2 μl of lipofectamine in 100 μl of serum-free DMEM for 15–45 min. The DNA/lipofectamine mixture was then added to the COS-7 (5×10^4) cells and incubated overnight. The following day, cells were washed twice with DMEM medium. TIL586, CTL clone 5 or CTL clone 10 were added at a concentration of 5×10^4 cells/well in AIM-V medium containing 120 IU/ml of IL-2. After 18–24 h incubation, 100 μl of supernatant was collected and GM-CSF was measured in a standard ELISA assay (R+D Systems, Minneapolis, Minn.). For peptides, 586EBV, 1510EBV and T2 cells were incubated with peptides at 37° C. for 90 min, and then washed three times with AIM-V medium containing 120 IU/ml of IL-2. T cells were added and incubated for additional 18–24 h, 100 μl of supernatant was collected for GM-CSF assay. In some experiments, IFN-γ release assays were done using a standard ELISA kit (Endogen, Woburn, Mass.).
These peptides were pulsed onto HLA-A31-positive 1510EBV B cells and tested for their ability to stimulate cytokine release by CTL clone 5. […] CTL clone 10 recognized the same peptide as CTL clone 5 (data not shown). […] The reactivity of CTL clone 5 was undetectable when either the ESO9-54 or the ESO10-127 peptides were used at concentrations below 100 nM to sensitize EBV cells.

**Q.** “ASGPGGGAPR (listed as Homo sapiens) [ESO10-53]” was tested. Which “Lysis of peptide-incubated 586EBV or 1510EBV by CTL clone 5” value ([1]; E:T ratio of 2.5:1, 4-h chromium release) did it give?
**A.** Its value is 5–10%.

**Q.** And the “Lysis of peptide-incubated 586EBV or 1510EBV by CTL clone 5” value ([1]; E:T ratio of 40:1, 4-h chromium release)?
**A.** The value was greater than 60%.

**Q.** And the “Lysis of HLA-A31-negative T2 cells pulsed with peptide by CTL clone 5” value ([1]; T2 cells, specificity control (FIG. 5C))?
**A.** Its value is “nor did it lyse”.

**Q.** What about the “Recognition by CTL clone 14, in words” value [2] of the same sequence?
**A.** The value was “did not recognize”.

**Q.** What about the “Recognition by CTL clone 14, in words” value ([2]; listed as ESO 10-53) of the same sequence?
**A.** Its value is “failed to recognize”.

**Q.** And the “GM-CSF release by CTL clone 5, EXPT. 2 (586EBV)” value ([3]; 586EBV cells, peptide 0.1 μg/ml for 90 min, 5 × 10^4 CTL clone 5)?
**A.** The value was 1044 (SEQ. ID NO: 25).

**Q.** What about the “CTL clone 5 GM-CSF release” value ([3]; 1510EBV cells incubated with peptide at 0.1 μg/ml for 90 min) of the same sequence?
**A.** Its value is >2000 (SEQ. ID NO: 25) pg/ml.

**Q.** What about the “GM-CSF release by CTL clone 5, EXPT. 1 (1510EBV)” value ([3]; 1510EBV cells, peptide 0.1 μg/ml for 90 min, 5 × 10^4 CTL clone 5) of the same sequence?
**A.** The value was 1097.

**Q.** What about the “Plateau of GM-CSF release from CTL clone 5 in peptide titration” value ([3]; at 10 μM peptide concentration (FIG. 5A)) of the same sequence?
**A.** Its value is “no plateau was reached”.

**Q.** And the “Recognition by CTL clone 5 (cytokine release), in words” value ([3]; peptide pulsed onto HLA-A31-positive 1510EBV or 586EBV B cells)?
**A.** Its value is “strongly recognized; also recorded: recognized”.

**Q.** What about the “Peptide concentration at which CTL clone 5 reactivity is detectable” value ([3]; peptide titration on EBV B cells, GM-CSF release) of the same sequence?
**A.** Its value is no more than 10 nM.

— US7084239B1, “Cancer peptides of NY-ESO-1/CAG-3” (The United States of America as represented by the …, priority 1997, dated 2006)
